Test results from patent publication US12185721B2, “Glycoside compound of fatty acids, composition comprising it, process for its obtention and methods to apply it on plants or fruits or both at the same time” (Consejo Nacional de Investigaciones Científicas y Técnicas …, priority 2020, dated 2025).
No end group written: not given here.

How the values were obtained:
[1] = system: Colletotrichum acutatum M11; conditions: described values; cited from earlier work
[2] = system: C. michiganensis cytoplasmic membrane; assay: Test for depolarization of membranes, diSC3(5) fluorescence; format: cell-based; conditions: FLs 60 μg/ml; valinomycin 1 μM; C. michiganensis cells
Experimental: To study the possible mechanism underlying the FLs antimicrobial activity, the effect of the application of FLs upon C. michiganensis cytoplasmic membrane was assessed (FIG. 4), by using the cyanine stain method with 3,3′-Dipropylthiadicarbocianine iodide (diSC3 (5)) (Biochemistry (1999), 38(22), 7235-7242.).
The depolarization of the membrane in the bacterium C. michiganensis as controlled through changes in the intensity of the fluorescence emission of the diSC3 (5) membrane-sensitive stain (Biochemistry, (1999), 38(22), 7235-7242.). C. michiganensis was grown in LB liquid medium and incubated in a stirrer (120 rpm) at 26° C., up to the growth in a median logarithmic phase (OD600=0.5). The harvested cells were centrifuged and washed once (glucose 5 mM and HEPES 20 mM pH 7.3) and were suspended again up to a final OD600 final=0.05 in the same buffer. […]
After the addition of 0.4 μM de diSC3 (5), the sample cells that contained bacterial cells were incubated at 26° C. until a stable reduction of the fluorescence (about 5 minutes) was reached, what indicated the incorporation of the stain into the bacterial membrane. Afterwards, the FLs, valinomycin or water were added and the stain fluorescence increase at 622 nm (excitation wavelength) and 670 nm (emission wavelength) with a RF-5301 PC spectrofluorometer (Shimadzu, Kyoto, Japan) was recorded. […]

[3] = system: Bacillus subtilis; conditions: described values; cited from earlier work
[4] = system: Rhodococcus fascians; conditions: values described for other antimicrobial compounds; cited from earlier work
[5] = system: Micrococcus sp.; conditions: described values; cited from earlier work
[6] = system: Listeria monocytogenes; conditions: described values; cited from earlier work
[7] = system: Xanthomonas fragariae; conditions: described values; cited from earlier work
[8] = system: Colletotrichum acutatum; assay: Test for resistance to disease in strawberry plants (anthracnose); format: in vivo; conditions: salicylic acid 5 mM; acibenzolar-s-methyl 1 mM
Experimental: Healthy plants of the cv“Pájaro” (“Bird”) 3 months old of Fragaria×ananassa from in vitro tissue cultures, with the FLs compounds at a preferred concentration of 0.03 μg/ml were sprayed and 5 days later they were exposed to the pathogen fungus Colletotrichum acutatum, causative agent of the anthracnose disease (European Journal of Plant Pathology, (2007) 117, 109-122). The infected plants were incubated in a growth chamber under optimal conditions for the proliferation of the fungi and the development of the disease (28° C., 80% of relative humidity and a photoperiod of 16 hours). Seven days after incubation, the gravity symptoms of petiole disease were assessed according to the scale proposed by Delp and Milholland (Plant Disease, (1980), 64(12), 1071-1073), that assigns values of gravity comprised between 1 (healthy plant) and 5 (very grave or dead plant). As positive controls of the induction of a defense against pathogens, the treatment with FLs was replaced by salicylic acid 5 mM or 1 mM of […] or BTH, a salicylic acid analogous that induces a […] defense in plants. It is worth noting that the FLs, BTH and salicylic acid concentrations used were subinhibitory for C. acutatum growth. As a negative control of defense induction, the plants were sprayed with sterile distilled water.

[9] = system: P. digitatum (blue mold); assay: Test for resistance to diseases in strawberry fruits, controlled conditions of growth; format: in vivo, Penicillum digitatum; conditions: FLs 10 μg/ml, HeT 0.8 mg/ml, sodium hypochlorite 4%
Experimental: (§1) Fruits inoculated under controlled conditions of growth: Healthy and ripe strawberries collected in the field were disinfected by means of washing in ethanol at 70%, sodium hypochlorite at 10% and sterile water. The disinfected fruits were immersed in an FLs solution (10 μg/ml) and incubated at 25° C., 90% of humidity and 16 hours of photoperiod. After 2 days of incubation, the surface of the treated fruits was inoculated with a fungus spore suspension of 20 μl ([…]) of B. cinerea or P. digitatum, and were incubated in the same growth conditions above described. Seven days after the pathogen inoculation, the incidence (% of infected fruits) and the severity (degree of affected fruit surface) of the disease were assessed. The fruits sprayed with a solution of sodium hypochlorite at 4% were used as a protection positive control and the sterile fruits treated with water, as negative controls. Besides, a treatment with the plant defense inducer HeT (0.8 mg/ml) was included. The FL and HeT concentrations were subinhibitory for fungal growth.

[10] = system: B. cinerea (gray mold); assay: as above; format: in vivo, Botrytis cinerea; conditions: FLs 10 μg/ml, HeT 0.8 mg/ml, sodium hypochlorite 4%
Experimental: as §1

[11] = system: Botritys cinerea; conditions: described values; cited from earlier work
[12] = system: Penicillum digitatum; conditions: described values; cited from earlier work
[13] = system: P. digitatum; assay: Protection against postharvest diseases in fruits of lemon tree, preventive effect; format: in vivo, Penicillum digitatum; conditions: Imazalil 500 ppm
[14] = system: Colletotrichum gloeosporioides L9; conditions: described values; cited from earlier work
[15] = system: Colletotrichum fragariae F7; conditions: described values; cited from earlier work
[16] = system: Staphylococcus epidermidis; conditions: described values; cited from earlier work
[17] = system: Enterococcus faecium CRL35; conditions: described values; cited from earlier work
[18] = system: Staphylococcus aureus; conditions: described values; cited from earlier work
[19] = system: Pseudomona aeruginosa; conditions: described values; cited from earlier work
[20] = system: Escherichia coli MC 4100; conditions: described values; cited from earlier work
[21] = system: Proteus sp.; conditions: described values; cited from earlier work
[22] = system: Citrobacter sp.; conditions: described values; cited from earlier work
[23] = system: Salmonella Newport; conditions: described values; cited from earlier work

Molecule: O=C1C2CC=CCC2C(=O)N1SC(Cl)(Cl)Cl (stereo not shown) [Captan]
- CE50 (μg/ml) for commercial antimicrobial [1]: Captan 1 μg/ml

Molecule: CC(C)[C@@H]1NC(=O)[C@H](C)OC(=O)[C@@H](C(C)C)NC(=O)[C@@H](C(C)C)OC(=O)[C@H](C(C)C)NC(=O)[C@H](C)OC(=O)[C@@H](C(C)C)NC(=O)[C@@H](C(C)C)OC(=O)[C@H](C(C)C)NC(=O)[C@H](C)OC(=O)[C@@H](C(C)C)NC(=O)[C@@H](C(C)C)OC1=O [valinomycin, reference compound]
- increase of diSC3 (5) fluorescence (membrane depolarization) [2]: induced a fluorescence increase similar to the one seen with the FL compound

Molecule: CC[C@H]1OC(=O)[C@H](C)[C@@H](O[C@H]2C[C@@](C)(OC)[C@@H](O)[C@H](C)O2)[C@H](C)[C@@H](O[C@@H]2O[C@H](C)C[C@H](N(C)C)[C@H]2O)[C@](C)(O)C[C@@H](C)C(=O)[C@H](C)[C@@H](O)[C@]1(C)O [Erythromycin]
- CE50 (μg/ml) for commercial antimicrobial [3]: Erythromycin 0.25 μg/ml
- CE50 (μg/ml) for commercial antimicrobial [4]: Erythromycin 0.25 μg/ml
- CE50 (μg/ml) for commercial antimicrobial [5]: Erythromycin 0.12 μg/ml
- CE50 (μg/ml) for commercial antimicrobial [6]: Erythromycin 0.25 μg/ml

Molecule: Cecropin B (KWKVFKKIEKMGRNIRNGIVKAGPAIAVLGEAKAL; ends and bridges not checked; UniProt P01508 27-61, looked up) [commercial antimicrobial]
- CE50 (μg/ml) for commercial antimicrobial [7]: Cecropin B 0.04 μg/ml

Molecule: CC[C@H]1OC(=O)[C@H](C)[C@@H](O[C@H]2C[C@@](C)(OC)[C@@H](O)[C@H](C)O2)[C@H](C)[C@@H](O[C@@H]2O[C@H](C)C[C@H](N(C)C)[C@H]2O)[C@](C)(OC)C[C@@H](C)C(=O)[C@H](C)[C@@H](O)[C@]1(C)O [Clarythromicin]
- CE50 (μg/ml) for commercial antimicrobial [3]: Clarythromicin 0.12 μg/ml
- CE50 (μg/ml) for commercial antimicrobial [4]: Clarythromicin 0.06 μg/ml
- CE50 (μg/ml) for commercial antimicrobial [5]: Clarythromicin 0.06 μg/ml
- CE50 (μg/ml) for commercial antimicrobial [6]: Clarythromicin 0.12 μg/ml

Molecule: O=C(O)c1ccccc1O [salicylic acid]
- protection against anthracnose compared with FLs [8]: comparable

Molecule: OCl [sodium hypochlorite, reference compound]
- reduction of blue mold incidence [9]: 50%
- reduction of blue mold severity [9]: 40%
- reduction of gray mold incidence [10]: 70%
- reduction of gray mold severity [10]: 45%

Molecule: C=CCOC(Cn1ccnc1)c1ccc(Cl)cc1Cl (stereo not shown) [Imazalil]
- CE50 (μg/ml) for commercial antimicrobial [11]: Imazalil 8 μg/ml
- CE50 (μg/ml) for commercial antimicrobial [12]: Imazalil 6 μg/ml
- protection of lemons compared with FLs 0.1 mg/ml [13]: comparable

Molecule: CCCCNC(=O)n1c(NC(=O)OC)nc2ccccc21 [Benomyl]
- CE50 (μg/ml) for commercial antimicrobial [14]: Benomyl 0.29 μg/ml
- CE50 (μg/ml) for commercial antimicrobial [15]: Benomyl 0.29 μg/ml

Molecule: CN[C@H](CC(C)C)C(=O)N[C@H]1C(=O)N[C@@H](CC(N)=O)C(=O)N[C@H]2C(=O)N[C@H]3C(=O)N[C@H](C(=O)N[C@H](C(=O)O)c4cc(O)cc(O)c4-c4cc3ccc4O)[C@H](O)c3ccc(c(Cl)c3)Oc3cc2cc(c3O[C@@H]2O[C@H](CO)[C@@H](O)[C@H](O)[C@H]2O[C@H]2C[C@](C)(N)[C@H](O)[C@H](C)O2)Oc2ccc(cc2Cl)[C@H]1O [Vancomycin]
- CE50 (μg/ml) for commercial antimicrobial [16]: Vancomycin 1.56 μg/ml
- CE50 (μg/ml) for commercial antimicrobial [17]: Vancomycin 0.78 μg/ml
- CE50 (μg/ml) for commercial antimicrobial [18]: Vancomycin 0.78 μg/ml

Molecule: CSC(=O)c1cccc2nnsc12 [acibenzolar-s-methyl]
- protection against anthracnose compared with FLs [8]: comparable

Molecule: C[C@@H](O)[C@H]1C(=O)N2C(C(=O)O)=C(S[C@@H]3CN[C@H](C(=O)N(C)C)C3)[C@H](C)[C@H]12 [Meropenem]
- CE50 (μg/ml) for commercial antimicrobial [19]: Meropenem 0.2 μg/ml
- CE50 (μg/ml) for commercial antimicrobial [20]: Meropenem 0.01 μg/ml
- CE50 (μg/ml) for commercial antimicrobial [21]: Meropenem 0.1 μg/ml
- CE50 (μg/ml) for commercial antimicrobial [22]: Meropenem 0.02 μg/ml

Molecule: NCC[C@H](O)C(=O)N[C@@H]1C[C@H](N)[C@@H](O[C@H]2O[C@H](CN)[C@@H](O)[C@H](O)[C@H]2O)[C@H](O)[C@H]1O[C@H]1O[C@H](CO)[C@@H](O)[C@H](N)[C@H]1O [Amikasin]
- CE50 (μg/ml) for commercial antimicrobial [23]: Amikasin 2 μg/ml

Molecule: CC[C@H]1OC(=O)[C@H](C)[C@@H](O[C@H]2C[C@@](C)(OC)[C@@H](O)[C@H](C)O2)[C@H](C)[C@@H](O[C@@H]2O[C@H](C)C[C@H](N(C)C)[C@H]2O)[C@](C)(O)C[C@@H](C)CN(C)[C@H](C)[C@@H](O)[C@]1(C)O [Azythromicin]
- CE50 (μg/ml) for commercial antimicrobial [3]: Azythromicin 2 μg/ml
- CE50 (μg/ml) for commercial antimicrobial [4]: Azythromicin 0.5 μg/ml
- CE50 (μg/ml) for commercial antimicrobial [5]: Azythromicin 0.12 μg/ml
- CE50 (μg/ml) for commercial antimicrobial [6]: Azythromicin 0.5 μg/ml
